US12116358B2, “Substituted indoles and methods of use thereof” (EPIZYME, INC., priority 2018, dated 2024)
Where two headings read alike, the source gives them in different places.

Columns and labels:
[1] = target: T1, SETD2(1434-1711) (Homo sapiens, UniProt Q9BYW2); assay: SETD2 (1434-1711) assay; format: biochemical; settings: read-out: SETD2 (1434-1711)
T1 construct: SETD2 (1434-1711) Assay; catalogue N/A
T1 sequence (Q9BYW2 1434-1711): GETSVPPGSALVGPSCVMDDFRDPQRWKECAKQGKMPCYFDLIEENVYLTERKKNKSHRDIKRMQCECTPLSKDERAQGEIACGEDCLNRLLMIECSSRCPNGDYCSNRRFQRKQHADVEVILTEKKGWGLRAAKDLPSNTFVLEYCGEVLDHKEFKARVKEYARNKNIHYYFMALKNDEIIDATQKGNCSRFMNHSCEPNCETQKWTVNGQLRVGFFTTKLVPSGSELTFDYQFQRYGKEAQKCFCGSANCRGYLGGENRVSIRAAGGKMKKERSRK

[2] = test system: H3K36me3 in A549 cells; assay: In-Cell Western (ICW) assay of SETD2 inhibitors (A549 assay); format: cell-based, human; settings: A549 cells, read-out: SETD2 A549
How it was run: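 A549 cells seeded at 4,000/well onto compound and incubated 3 days at 37° C. Methanol-fixed cells stained overnight at 4° C with anti-H3K36me3 (1:1000), then IRDye 800CW secondary with DRAQ5 DNA counterstain. Plates read by Licor imaging at 700 and 800 channels.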

| SMILES | IC50 [1] [nM] | IC50 ([2]; Homo sapiens) [nM] | IC50 [2] [nM] |
| --- | --- | --- | --- |
| Cc1ccc(F)c2cc(C(=O)N[C@@H]3CCC[C@H](N4CCN(C(=O)OC5CCOCC5)CC4)C3)[nH]c12 [compound 999] | 10 | 60 | – |
| Cc1ccc(F)c2cc(C(=O)N[C@@H]3CCC[C@H](N4CCC(N(C)C)C4=O)C3)[nH]c12 (some centres unmarked) [compound 1002] | 1200 | 1800 | – |
| CC(=O)N1CCC([C@H]2CCC[C@@H](NC(=O)c3cc4c(F)ccc(C)c4[nH]3)C2)CC1 [compound 1007] | 6 | 20 | – |
| Cc1ccc(F)c2cc(C(=O)N[C@@H]3CCC[C@H](c4nccc(=O)[nH]4)C3)[nH]c12 [compound 1013] | 706 | > 2000 | – |
| Cc1ccc(F)c2cc(C(=O)N[C@@H]3CCC[C@H](c4noc(CN(C)C)n4)C3)[nH]c12 [compound 1014] | 200 | 700 | – |
| CC(=O)N1CCN(C2CCCC(NC(=O)c3cc4c(F)ccc(C)c4[nH]3)C2)C(C)C1 (centres unmarked) [compound 1021] | 50 | – | 90 |
| CC(=O)N1CCN([C@H]2CCC[C@@H](NC(=O)c3cc4c(F)ccc(C)c4[nH]3)C2)C2(CC2)C1 [compound 1024] | 50 | 60 | – |
| Cc1ccc(F)c2cc(C(=O)N[C@@H]3CCC[C@H](N4CCN(C(=O)NC5CCOCC5)CC4)C3)[nH]c12 [compound 1037] | 30 | 300 | – |
| Cc1ccc(F)c2cc(C(=O)N[C@@H]3CCC[C@H](N4CCN5C(=O)CCC[C@@H]5C4)C3)[nH]c12 [compound 1044] | 20 | 20 | – |
| Cc1ccc(F)c2cc(C(=O)N[C@@H]3CCC[C@H](N4CCN5C(=O)COCC5C4)C3)[nH]c12 (some centres unmarked) [compound 1045] | 8 | 30 | – |
| Cc1ccc(F)c2cc(C(=O)N[C@@H]3CCC[C@H](N4CCn5c(cccc5=O)C4)C3)[nH]c12 [compound 1048] | 20 | 70 | – |
| Cc1ccc(F)c2cc(C(=O)NC3CCCC(N4CCN5C(=O)NCC5C4)C3)[nH]c12 (centres unmarked) [compound 1050] | 1000 | – | > 2000 |
| CCN(C(=O)CO)C1CCN(C2CCCC(NC(=O)c3cc4c(F)ccc(C)c4[nH]3)C2)C1 (centres unmarked) [compound 1053] | 30 | – | 400 |
| CCC1CN(C2CCCC(NC(=O)c3cc4c(F)ccc(C)c4[nH]3)C2)CCN1C(C)=O (centres unmarked) [compound 1055] | 9 | – | 5 |
| Cc1ccc(F)c2cc(C(=O)N[C@@H]3CCC[C@H](N4CCn5c(nn(C)c5=O)C4)C3)[nH]c12 [compound 1056] | 90 | 300 | – |
| Cc1ccc(F)c2cc(C(=O)N[C@@H]3CCC[C@H](N4CCn5c(cn(C)c5=O)C4)C3)[nH]c12 [compound 1057] | 40 | 100 | – |
| Cc1ccc(F)c2cc(C(=O)N[C@@H]3CCC[C@H](N4CCn5c(n[nH]c5=O)C4)C3)[nH]c12 [compound 1058] | 40 | 600 | – |
| Cc1ccc(F)c2cc(C(=O)N[C@@H]3CCC[C@H](N4CCn5c(c[nH]c5=O)C4)C3)[nH]c12 [compound 1059] | 20 | 600 | – |
| CC(=O)N1[C@H](C)CN([C@H]2CCC[C@@H](NC(=O)c3cc4c(F)ccc(C)c4[nH]3)C2)C[C@H]1C [compound 1062] | 10 | 10 | – |
| Cc1nc([C@@H]2CCC[C@H](NC(=O)c3cc4c(F)ccc(C)c4[nH]3)C2)no1 [compound 1065] | 9100 | > 2000 | – |
| Cc1ccc(F)c2cc(C(=O)N[C@@H]3CCC[C@H](c4cc(=O)[nH]cn4)C3)[nH]c12 [compound 1068] | 100 | 700 | – |
| CC(=O)N1CCN([C@@H]2CCC[C@@H](NC(=O)c3cc4c(F)ccc(C)c4[nH]3)C2)[C@@H](C)C1 [compound 1074] | 4500 | > 2000 | – |
| Cc1ccc(F)c2cc(C(=O)N[C@@H]3CCC[C@@H](N4CCN5C(=O)NC[C@H]5C4)C3)[nH]c12 [compound 1082] | 600 | > 2000 | – |
| Cc1ccc(F)c2cc(C(=O)NC3CCCC(N4CCN5C(=O)NCC5C4)C3)[nH]c12 (centres unmarked) [compound 1083] | 20 | – | 50 |

Continued, values first:

| IC50 [1] [nM] | IC50 ([2]; Homo sapiens) [nM] | IC50 [2] [nM] | SMILES |
| --- | --- | --- | --- |
| 1500 | – | > 2000 | Cc1ccc(F)c2cc(C(=O)NC3CCCC(N4CCN(C(=O)OC5CCOCC5)CC4)C3)[nH]c12 (centres unmarked) [compound 1000] |
| 30 | 200 | – | Cc1ccc(F)c2cc(C(=O)N[C@@H]3CCC[C@H](c4ccncn4)C3)[nH]c12 [compound 1003] |
| 1000 | 1800 | – | CC(=O)N1CCN([C@@H]2C[C@H](NC(=O)c3cc4c(F)ccc(C)c4[nH]3)CN(C)C2)CC1 [compound 1006] |
| 300 | 900 | – | Cc1nc([C@H]2CCC[C@@H](NC(=O)c3cc4c(F)ccc(C)c4[nH]3)C2)no1 [compound 1011] |
| 30 | – | 70 | CC(=O)N1CCN(C2CCCC(NC(=O)c3cc4c(F)ccc(C)c4[nH]3)C2)CC1C(F)(F)F (centres unmarked) [compound 1018] |
| 2600 | – | > 2000 | CC(=O)N1CCN(C2CCCC(NC(=O)c3cc4c(F)ccc(C)c4[nH]3)C2)CC1CO (centres unmarked) [compound 1022] |
| 20 | 30 | – | CC(=O)N1CCN([C@H]2CCC[C@@H](NC(=O)c3cc4c(F)ccc(C)c4[nH]3)C2)CC12CC2 [compound 1025] |
| 200 | 1400 | – | Cc1ccc(F)c2cc(C(=O)N[C@@H]3CCC[C@H](N4CCn5nc(C(F)(F)F)nc5C4)C3)[nH]c12 [compound 1031] |
| 200 | 400 | – | CC(=O)N1CCN(C[C@H]2CCC[C@@H](NC(=O)c3cc4c(F)ccc(C)c4[nH]3)C2)CC1 [compound 1032] |
| 20 | 200 | – | COCC(=O)N(C)[C@@H]1CCN([C@H]2CCC[C@@H](NC(=O)c3cc4c(F)ccc(C)c4[nH]3)C2)C1 [compound 1042] |
| 8 | 40 | – | COCC(=O)N(C)[C@H]1CCN([C@H]2CCC[C@@H](NC(=O)c3cc4c(F)ccc(C)c4[nH]3)C2)C1 [compound 1043] |
| 2800 | – | > 2000 | Cc1ccc(F)c2cc(C(=O)NC3CCCC(N4CCN5C(=O)CN(C)C(=O)C5C4)C3)[nH]c12 (centres unmarked) [compound 1046] |
| 50 | 100 | – | Cc1ccc(F)c2cc(C(=O)N[C@@H]3CCC[C@H](N4CCn5c(nccc5=O)C4)C3)[nH]c12 [compound 1049] |
| 10 | – | 30 | Cc1ccc(F)c2cc(C(=O)NC3CCCC(N4CCN5C(=O)N(C)CC5C4)C3)[nH]c12 (centres unmarked) [compound 1051] |
| 20 | – | 50 | Cc1ccc(F)c2cc(C(=O)NC3CCCC(N4CCC(N(C)C(=O)C(C)(C)O)C4)C3)[nH]c12 (centres unmarked) [compound 1052] |
| 10 | 90 | – | CCN([C@@H]1CCN([C@H]2CCC[C@@H](NC(=O)c3cc4c(F)ccc(C)c4[nH]3)C2)C1)S(C)(=O)=O [compound 1054] |

| IC50 [1] [nM] | IC50 ([2]; Homo sapiens) [nM] | IC50 [2] [nM] | SMILES |
| --- | --- | --- | --- |
| 20 | 300 | – | Cc1ccc(F)c2cc(C(=O)N[C@@H]3CCC[C@H](N4CC[C@H](N(CCO)S(C)(=O)=O)C4)C3)[nH]c12 [compound 1061] |
| 2900 | > 2000 | – | COCC(=O)N(C)[C@H]1CCN([C@@H]2CCC[C@@H](NC(=O)c3cc4c(F)ccc(C)c4[nH]3)C2)C1 [compound 1063] |
| 2300 | > 2000 | – | Cc1ccc(F)c2cc(C(=O)N[C@@H]3CCC[C@@H](c4ccncn4)C3)[nH]c12 [compound 1064] |
| 5500 | – | > 2000 | Cc1ccc(F)c2cc(C(=O)NC3CCCC(N4CCn5nc(C(F)(F)F)nc5C4)C3)[nH]c12 (centres unmarked) [compound 1066] |
| 900 | – | 1200 | Cc1ccc(F)c2cc(C(=O)NC3CCCC(N4CCN5C(=O)COCC5C4)C3)[nH]c12 (centres unmarked) [compound 1067] |
| 10 | 10 | – | CC(=O)N1CCN([C@H]2CCC[C@@H](NC(=O)c3cc4c(F)ccc(C)c4[nH]3)C2)C[C@H]1C(F)(F)F [compound 1070] |
| 5200 | > 2000 | – | CC(=O)N1CCN([C@@H]2CCC[C@@H](NC(=O)c3cc4c(F)ccc(C)c4[nH]3)C2)C[C@@H]1C(F)(F)F [compound 1071] |
| 2300 | > 2000 | – | CC(=O)N1CCN([C@@H]2CCC[C@@H](NC(=O)c3cc4c(F)ccc(C)c4[nH]3)C2)C[C@H]1C(F)(F)F [compound 1072] |
| 1400 | 1700 | – | CC(=O)N1CCN([C@@H]2CCC[C@@H](NC(=O)c3cc4c(F)ccc(C)c4[nH]3)C2)C[C@H]1CO [compound 1076] |
| > 10000 | > 2000 | – | CC(=O)N1CCN(C[C@@H]2CCC[C@H](NC(=O)c3cc4c(F)ccc(C)c4[nH]3)C2)CC1 [compound 1077] |
| 10 | – | 30 | Cc1ccc(F)c2cc(C(=O)NC3CCCC(N4CCN5C(=O)CCCC5C4)C3)[nH]c12 (centres unmarked) [compound 1078] |
| 300 | 1300 | – | Cc1ccc(F)c2cc(C(=O)N[C@@H]3CCC[C@@H](N4CCN5C(=O)CCC[C@@H]5C4)C3)[nH]c12 [compound 1079] |
| 500 | – | 1700 | Cc1ccc(F)c2cc(C(=O)NC3CCCC(N4CCN5C(=O)CCCC5C4)C3)[nH]c12 (centres unmarked) [compound 1080] |
| 100 | – | 500 | Cc1ccc(F)c2cc(C(=O)NC3CCCC(N4CCN5C(=O)NCC5C4)C3)[nH]c12 (centres unmarked) [compound 1084] |
| 30 | 100 | – | CC[C@H]1CN([C@H]2CCC[C@@H](NC(=O)c3cc4c(F)ccc(C)c4[nH]3)C2)CCN1C(C)=O [compound 1085] |
